The text below walks through data of patent US12662451B2, “Chemical compounds and uses thereof” (GLAXOSMITHKLINE INTELLECTUAL PROPERTY (NO.4) LIMITED, priority 2023, dated 2026).

In this assay the target is T1, recombinant full-length WRN protein (1-1432) (Homo sapiens, UniProt Q14191).
T1 construct: recombinant full-length WRN protein (1-1432)
Kind of assay: WRN unwinding activity, fluorogenic 384-well assay (Example A). In kind it is biochemical. The note with it: Table 2. Here is the method: Functional WRN unwinding activity can be measured using a fluorogenic plate based 384 well assay configured to measure the separation of labeled double stranded DNA substrate. Compounds were dosed out in neat DMSO with a 1:3 serial dilution scheme. 100 nL of compound was stamped into Greiner low volume black assay plates (Greiner Cat #784076) using the Echo Acoustic Dispenser to generate assay ready plates. All solutions were prepared in assay buffer (25 mM TRIS (pH8.0), 5 mM NaCl, 2 mM MgCl2, 1 mM DTT, 0.05% BSA) for this 10 μL low volume reaction. To prepare the solutions, a 2×WRN Enzyme cocktail was made containing 200 pM of recombinant full-length WRN protein (1-1432). A 2× Substrate cocktail was made to consist of both 200 μM ATP (any ultrapure ATP sample) and 12 nM of the fluorescent quenched labeled double stranded DNA oligomer (IDT Custom synthesis; 5′-5IABkFQ (SEQ ID NO. 1)/GCACTGGCCGTCGTTTTACGGTCGTGACT-3′ (SEQ ID NO. 2): 5′-TTTTTTACTTAACGACGGCCAGTGC (SEQ ID NO. 3)/36-TAMTSP/-3′ (SEQ ID NO. 4)). To start the reaction, 5 μL of assay buffer was added to a single column to serve as the low control. Following this, 5 μL of 2×WRN Enzyme was added in all wells except the buffer low control wells. The reaction plate was covered and incubated at ambient temperature for 4 hours to allow for time dependent inhibition if it existed. After 4 hours, the addition of 5 μL of 2×-ATP/DNA substrate cocktail was added across all wells of the assay plate. This initiated the reaction, as the plate was incubated at ambient temperature for 60 minutes for the unwinding reaction to occur. A 10 mM EDTA solution was prepared and added at 5 μL across the entire plate after 60 minutes to quench the samples for an endpoint measurement. Fluorescent intensity was measured using excitation and emission wavelengths of 525 nm and 598 nm, respectively. High florescent intensity (DMSO with buffer) represents full inhibition of unwinding activity and low florescent intensity (DMSO with enzyme) represents no inhibition of unwinding activity. The potency of the compounds was determined using a four-parameter inhibition model to generate pIC50, Hill Slope, maximum inhibition (see Table 2).

[1] abbreviates: WRN unwinding activity, 4 hr, read-out: 4 hr UNW pIC50 (converted).

Each structure is given as a SMILES string. Counter-ions that a name gives are not always drawn. Like-named read-outs stand apart in the source and are kept apart here.

T1 sequence (Q14191 whole entry): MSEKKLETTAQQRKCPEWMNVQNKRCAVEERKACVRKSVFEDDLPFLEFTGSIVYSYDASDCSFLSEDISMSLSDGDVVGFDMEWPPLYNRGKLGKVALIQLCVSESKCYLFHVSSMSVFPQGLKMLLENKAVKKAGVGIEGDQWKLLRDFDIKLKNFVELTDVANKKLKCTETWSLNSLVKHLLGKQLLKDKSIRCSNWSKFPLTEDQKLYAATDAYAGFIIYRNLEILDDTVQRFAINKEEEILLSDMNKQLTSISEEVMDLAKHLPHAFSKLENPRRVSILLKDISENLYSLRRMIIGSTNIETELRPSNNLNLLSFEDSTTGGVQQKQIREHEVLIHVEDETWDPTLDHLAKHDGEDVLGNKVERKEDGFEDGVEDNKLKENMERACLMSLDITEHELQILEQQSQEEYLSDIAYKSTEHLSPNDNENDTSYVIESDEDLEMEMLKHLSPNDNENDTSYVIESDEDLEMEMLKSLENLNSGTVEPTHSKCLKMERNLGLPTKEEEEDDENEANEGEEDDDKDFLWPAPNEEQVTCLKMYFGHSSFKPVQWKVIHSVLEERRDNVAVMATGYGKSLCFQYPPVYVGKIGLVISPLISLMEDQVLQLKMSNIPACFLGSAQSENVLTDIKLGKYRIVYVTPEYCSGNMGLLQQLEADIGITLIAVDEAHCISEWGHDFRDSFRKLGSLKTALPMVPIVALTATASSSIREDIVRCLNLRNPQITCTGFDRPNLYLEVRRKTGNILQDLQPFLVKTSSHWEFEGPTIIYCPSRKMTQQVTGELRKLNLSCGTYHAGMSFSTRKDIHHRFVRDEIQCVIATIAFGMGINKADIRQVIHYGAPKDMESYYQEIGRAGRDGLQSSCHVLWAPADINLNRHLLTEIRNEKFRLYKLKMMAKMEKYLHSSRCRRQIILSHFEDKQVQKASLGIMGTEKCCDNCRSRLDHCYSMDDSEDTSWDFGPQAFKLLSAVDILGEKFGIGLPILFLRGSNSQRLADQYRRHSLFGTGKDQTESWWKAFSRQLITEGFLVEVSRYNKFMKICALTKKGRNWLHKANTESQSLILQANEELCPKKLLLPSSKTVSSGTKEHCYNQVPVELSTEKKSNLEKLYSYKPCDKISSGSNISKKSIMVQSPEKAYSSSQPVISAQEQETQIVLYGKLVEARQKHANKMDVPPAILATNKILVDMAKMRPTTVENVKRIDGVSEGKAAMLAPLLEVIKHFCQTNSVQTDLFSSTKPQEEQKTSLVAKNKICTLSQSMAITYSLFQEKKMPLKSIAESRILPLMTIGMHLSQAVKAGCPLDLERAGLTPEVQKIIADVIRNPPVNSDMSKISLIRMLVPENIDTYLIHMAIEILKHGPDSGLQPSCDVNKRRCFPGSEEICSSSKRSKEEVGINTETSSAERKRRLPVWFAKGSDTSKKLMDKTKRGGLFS

Regarding `CC#Cc1cc([C@H]2CCC[C@@H](C(=O)Nc3ccc(C(F)(F)F)cc3F)[C@@H]2C(=O)O)ccc1C(F)(F)F` (racemic) [Example 240, rac-(1R,2R,6S)-2-((2-fluoro-4-(trifluoromethyl)phenyl)carbamoyl)-6-(3-(prop-1-yn-1-yl)-4-(trifluoromethyl)phenyl)cyclohexane-1-carboxylic acid], under setting [1], the IC50 was 3980 nM.

For `O=C(Nc1ccc(C(F)(F)F)cc1)[C@@H]1CCC[C@H](c2ccc(Br)cc2)[C@@]1(F)C(=O)O` (racemic) [Example 243, rac-(1R,2S,6R)-2-(4-bromophenyl)-1-fluoro-6-((4-(trifluoromethyl)phenyl)carbamoyl)cyclohexane-1-carboxylic acid], the IC50 under setting [1] was 5010 nM. On to `O=C(O)[C@@H]1[C@@H](c2ccc(C(F)(F)F)cc2CO)CCC[C@H]1C(=O)Nc1ccc(C(F)(F)F)cc1F` (racemic) [Example 246, rac-(1R,2R,6S)-2-((2-fluoro-4-(trifluoromethyl)phenyl)carbamoyl)-6-(2-(hydroxymethyl)-4-(trifluoromethyl)phenyl)cyclohexane-1-carboxylic acid], for which the IC50 under setting [1] was 126 nM.

For `O=C(O)[C@@H]1[C@@H](c2ccc(C(F)(F)F)cc2)CCC[C@H]1C(=O)Nc1ccc(C(F)(F)F)cc1F` (racemic) [Example 247, rac-(1R,2R,6S)-2-((2-fluoro-4-(trifluoromethyl)phenyl)carbamoyl)-6-(4-(trifluoromethyl)phenyl)cyclohexane-1-carboxylic acid], the IC50 under setting [1] was 79.4 nM. On the same count and under the same terms, then `CCN[C@@H]1CC[C@@H](C(=O)Nc2ccc(C(C)C)cc2)[C@H](C(=O)O)[C@H]1c1ccc(N(C)S(=O)(=O)c2ccc3c(c2)nc(C)n3C)cc1` (racemic) [Example 249, rac-(1R,2S,3R,6R)-3-(ethylamino)-6-((4-isopropylphenyl)carbamoyl)-2-(4-((N,1,2-trimethyl-1H-benzo[d]imidazole)-5-sulfonamido)phenyl)cyclohexane-1-carboxylic acid], with 1.58 nM; and `Cc1nc2cc(S(=O)(=O)N(C)c3ccc([C@@H]4CCC[C@H](C(=O)Nc5ccc(C(F)(F)F)cc5F)[C@H]4C(=O)O)cc3C#N)ccc2n1C` (relative stereo) [Example 163, rel-(1R,2S,6R)-2-(3-cyano-4-((N,1,2-trimethyl-1H-benzo[d]imidazole)-5-sulfonamido)phenyl)-6-((2-fluoro-4-(trifluoromethyl)phenyl)carbamoyl)cyclohexane-1-carboxyl c acid], with 20 nM.

Consider `CN(c1ccc([C@H]2CCC[C@@H](COc3ccc(C(F)(F)F)cc3)[C@@H]2C(=O)O)cc1)S(=O)(=O)c1cccc([C@H]2CCCNC2)c1` (relative stereo) [Example 213, (1R,2S,6R)-2-(4-((N-methyl-3-((R*)-piperidin-3-yl)phenyl)sulfonamido)phenyl)-6-((4-(trifluoromethyl)phenoxy)methyl)cyclohexane-1-carboxylic acid, formic acid salt], for which the IC50 (4 hr UNW pIC50, WRN unwinding activity) was 39.8 nM. In the case of `Cc1nc2cc(S(=O)(=O)N(C)c3ccc([C@H]4C[C@H](N(C)C)C[C@@H](C(=O)Nc5ccc(C(F)(F)F)cc5F)[C@@H]4C(=O)O)cc3)ccc2n1C` (relative stereo) [Example 253, rel-(1R,2R,4S,6S)-4-(dimethylamino)-2-((2-fluoro-4-(trifluoromethyl)phenyl)carbamoyl)-6-(4-((N,1,2-trimethyl-1H-benzo[d]imidazole)-5-sulfonamido)phenyl)cyclohexane-1-carboxylic acid], the IC50 under setting [1] was 2 nM. Turning to `Cc1nc2cc(S(=O)(=O)Nc3ccc([C@H]4CCC[C@@H](C(=O)Nc5ccc(C(F)(F)F)cc5F)[C@@H]4C(=O)O)cc3)ccc2[nH]1` (relative stereo) [Example 258, rel-(1R,2R,6S)-2-((2-fluoro-4-(trifluoromethyl)phenyl)carbamoyl)-6-(4-((2-methyl-1H-benzo[d]imidazole)-5-sulfonamido)phenyl)cyclohexane-1-carboxylic acid], the IC50 under setting [1] is 631 nM.

On to `Cc1nc2cc(S(=O)(=O)N(C)c3ccc([C@H]4CNC[C@@H](C(=O)Nc5ccc(C(F)(F)F)cc5F)[C@@H]4C(=O)O)cc3)ccc2n1C` (relative stereo) [Example 308, rel-(3R,4S,5R)-3-((2-fluoro-4-(trifluoromethyl)phenyl)carbamoyl)-5-(4-((N,1,2-trimethyl-1H-benzo[d]imidazole)-5-sulfonamido)phenyl)piperidine-4-carboxylic acid], for which the IC50 under setting [1] is 1.58 nM. Same read-out and setting: then `Cc1nc2cc(S(=O)(=O)N(C)c3ccc([C@@H]4C[C@@H](N5CCOCC5)C[C@H](C(=O)Nc5ccc(C(F)(F)F)cc5F)[C@H]4C(=O)O)cc3)ccc2n1C` (relative stereo) [Example 339, rel-(1R,2R,4S,6S)-2-((2-fluoro-4-(trifluoromethyl)phenyl)carbamoyl)-4-morpholino-6-(4-((N,1,2-trimethyl-1H-benzo[d]imidazole)-5-sulfonamido)phenyl)cyclohexane-1-carboxylic acid], with 631 nM; and `Cc1nc2cc(S(=O)(=O)N(C)c3ccc([C@@H]4C[C@@H](N5CCC(F)(F)CC5)C[C@H](C(=O)Nc5ccc(C(F)(F)F)cc5F)[C@H]4C(=O)O)cc3)ccc2n1C` (relative stereo) [Example 341, rel-(1R,2R,4S,6S)-4-(4,4-difluoropiperidin-1-yl)-2-((2-fluoro-4-(trifluoromethyl)phenyl)carbamoyl)-6-(4-((N,1,2-trimethyl-1H-benzo[d]imidazole)-5-sulfonamido)phenyl)cyclohexane-1-carboxylic acid], with 7940 nM.

Take `Cc1nc2cc(S(=O)(=O)N(C)c3ccc([C@@H]4C[C@@H](N5CC6(F)CC5C6)C[C@H](C(=O)Nc5ccc(C(F)(F)F)cc5F)[C@H]4C(=O)O)cc3)ccc2n1C` (relative stereo) [Example 399, rel-(1R,2R,4S,6S)-2-((2-fluoro-4-(trifluoromethyl)phenyl)carbamoyl)-4-(4-fluoro-2-azabicyclo[2.1.1]hexan-2-yl)-6-(4-((N,1,2-trimethyl-1H-benzo[d]imidazole)-5-sulfonamido)phenyl)cyclohexane-1-carboxylic acid]: the IC50 under setting [1] is 12600 nM. On the same count and under the same terms, for `Cc1nc2cc(S(=O)(=O)N(C)c3ccc([C@H]4CCC[C@H](C(=O)Nc5ccc(C(C)C)cc5)[C@@H]4C(=O)O)cc3)ccc2n1C` (single isomer, unassigned) [Example 74] the value was 251 nM. As to `Cc1nc2cc(S(=O)(=O)N(C)c3ccc([C@H]4CCC[C@@H](C(=O)Nc5ccc(C(C)C)cc5)[C@H]4C(=O)O)cc3)ccc2n1C` (single isomer, unassigned) [Example 76], under setting [1], the IC50 is 1260 nM. `Cc1nc2cc(S(=O)(=O)N(C)c3ccc([C@H]4CCC[C@@H](C(=O)Nc5ccc(C(C)C)cc5)[C@@H]4C(=O)O)cc3)ccc2n1C` (single isomer, unassigned) [Example 79]: the IC50 under setting [1] was 501 nM. Regarding `CN(c1ccc([C@H]2CCC[C@@H](C(=O)Nc3ccc(C(F)(F)F)cc3F)[C@@H]2C(=O)O)cc1)S(=O)(=O)c1ccc2[nH]cnc2c1` (single isomer, unassigned) [Example 85], the IC50 under setting [1] is 251 nM. The same measure, in the same setting: then `CN(c1ccc([C@H]2CCC[C@@H](C(=O)Nc3ccc(C(F)(F)F)cc3F)[C@@H]2C(=O)O)cc1)S(=O)(=O)c1ccc2c(c1)ncn2C` (single isomer, unassigned) [Example 87], with 316 nM; and `CC(=O)N1CCc2cc(S(=O)(=O)N(C)c3ccc([C@H]4CCC[C@@H](C(=O)Nc5ccc(C(F)(F)F)cc5F)[C@@H]4C(=O)O)cc3)ccc21` (single isomer, unassigned) [Example 89], with 200 nM.

Consider `Cc1nc2cc(S(=O)(=O)N(C)c3ccc([C@H]4CCC[C@@H](C(=O)Nc5ccc(C(F)(F)F)cc5F)[C@@H]4C(=O)O)cc3)ccc2[nH]1` (single isomer, unassigned) [Example 91], for which, under setting [1], the IC50 is 126 nM.

In the case of `CCO[C@@H]1C[C@H](C(=O)Nc2ccc(C(F)(F)F)cc2F)[C@@H](C(=O)O)[C@H](c2ccc(N(C)S(=O)(=O)c3ccc4c(c3)nc(C)n4C)cc2)C1` (single isomer, unassigned) [Example 137], under setting [1], the IC50 was 251 nM. `Cc1nc2cc(S(=O)(=O)N(C)c3ccc([C@H]4C[C@@H](O)C[C@@H](C(=O)Nc5ccc(C(F)(F)F)cc5F)[C@H]4C(=O)O)cc3)ccc2n1C` (single isomer, unassigned) [Example 142]: the IC50 under setting [1] is 2000 nM.

Regarding `Cc1nc2cc(S(=O)(=O)N(C)c3ccc([C@H]4C[C@@H](O)C[C@@H](C(=O)Nc5ccc(C(F)(F)F)cc5F)[C@H]4C(=O)O)cc3)ccc2n1C` (single isomer, unassigned) [Example 143], the IC50 under setting [1] was 15.8 nM.
